Results: ChEMBL document CHEMBL4020788, “Synthesis, SAR and molecular docking studies of benzo[d]thiazole-hydrazones as potential antibacterial and antifungal agents” (2017)
≈ marks a conversion by molar mass, not a printed value. Calls of active or inactive are those of the source. The rule behind the calls is not given here.

Assays:
Assay type in all cases: functional
[1] = tested on: Staphylococcus aureus; test: Antibacterial activity against Staphylococcus aureus at 25 ug/ml after 24 hrs by agar well diffusion method; conditions: read-out: DIZ
[2] = tested on: Staphylococcus aureus; test: Antibacterial activity against Staphylococcus aureus at 50 ug/ml after 24 hrs by agar well diffusion method; conditions: read-out: DIZ
[3] = tested on: Staphylococcus aureus; test: Antibacterial activity against Staphylococcus aureus at 75 ug/ml after 24 hrs by agar well diffusion method; conditions: read-out: DIZ
[4] = tested on: Staphylococcus aureus; test: Antibacterial activity against Staphylococcus aureus at 100 ug/ml after 24 hrs by agar well diffusion method; conditions: read-out: DIZ
[5] = tested on: Bacillus subtilis; test: Antibacterial activity against Bacillus subtilis at 25 ug/ml after 24 hrs by agar well diffusion method; conditions: read-out: DIZ
[6] = tested on: Bacillus subtilis; test: Antibacterial activity against Bacillus subtilis at 50 ug/ml after 24 hrs by agar well diffusion method; conditions: read-out: DIZ
[7] = tested on: Bacillus subtilis; test: Antibacterial activity against Bacillus subtilis at 75 ug/ml after 24 hrs by agar well diffusion method; conditions: read-out: DIZ
[8] = tested on: Bacillus subtilis; test: Antibacterial activity against Bacillus subtilis at 100 ug/ml after 24 hrs by agar well diffusion method; conditions: read-out: DIZ
[9] = tested on: Escherichia coli; test: Antibacterial activity against Escherichia coli at 25 ug/ml after 24 hrs by agar well diffusion method; conditions: read-out: DIZ
[10] = tested on: Escherichia coli; test: Antibacterial activity against Escherichia coli at 50 ug/ml after 24 hrs by agar well diffusion method; conditions: read-out: DIZ
[11] = tested on: Escherichia coli; test: Antibacterial activity against Escherichia coli at 75 ug/ml after 24 hrs by agar well diffusion method; conditions: read-out: DIZ
[12] = tested on: Escherichia coli; test: Antibacterial activity against Escherichia coli at 100 ug/ml after 24 hrs by agar well diffusion method; conditions: read-out: DIZ
[13] = tested on: Klebsiella pneumoniae; test: Antibacterial activity against Klebsiella pneumoniae at 25 ug/ml after 24 hrs by agar well diffusion method; conditions: read-out: DIZ
[14] = tested on: Klebsiella pneumoniae; test: Antibacterial activity against Klebsiella pneumoniae at 50 ug/ml after 24 hrs by agar well diffusion method; conditions: read-out: DIZ
[15] = tested on: Klebsiella pneumoniae; test: Antibacterial activity against Klebsiella pneumoniae at 75 ug/ml after 24 hrs by agar well diffusion method; conditions: read-out: DIZ
[16] = tested on: Klebsiella pneumoniae; test: Antibacterial activity against Klebsiella pneumoniae at 100 ug/ml after 24 hrs by agar well diffusion method; conditions: read-out: DIZ
[17] = tested on: Staphylococcus aureus; test: Antibacterial activity against methicillin resistant Staphylococcus aureus MRSA090 at 25 ug/ml after 24 hrs by agar well diffusion method; conditions: MRSA090, 24 h, read-out: DIZ
[18] = tested on: Staphylococcus aureus; test: Antibacterial activity against methicillin resistant Staphylococcus aureus MRSA090 at 50 ug/ml after 24 hrs by agar well diffusion method; conditions: MRSA090, 24 h, read-out: DIZ
[19] = tested on: Staphylococcus aureus; test: Antibacterial activity against methicillin resistant Staphylococcus aureus MRSA090 at 75 ug/ml after 24 hrs by agar well diffusion method; conditions: MRSA090, 24 h, read-out: DIZ
[20] = tested on: Staphylococcus aureus; test: Antibacterial activity against methicillin resistant Staphylococcus aureus MRSA090 at 100 ug/ml after 24 hrs by agar well diffusion method; conditions: MRSA090, 24 h, read-out: DIZ
[21] = tested on: Aspergillus niger; test: Antifungal activity against Aspergillus niger at 25 ug/ml after 48 hrs by agar well diffusion method
[22] = tested on: Aspergillus niger; test: Antifungal activity against Aspergillus niger at 50 ug/ml after 48 hrs by agar well diffusion method
[23] = tested on: Aspergillus niger; test: Antifungal activity against Aspergillus niger at 75 ug/ml after 48 hrs by agar well diffusion method
[24] = tested on: Aspergillus niger; test: Antifungal activity against Aspergillus niger at 100 ug/ml after 48 hrs by agar well diffusion method; conditions: read-out: DIZ
[25] = tested on: Fusarium verticillioides; test: Antifungal activity against Fusarium moniliforme at 25 ug/ml after 48 hrs by agar well diffusion method
[26] = tested on: Fusarium verticillioides; test: Antifungal activity against Fusarium moniliforme at 50 ug/ml after 48 hrs by agar well diffusion method
[27] = tested on: Fusarium verticillioides; test: Antifungal activity against Fusarium moniliforme at 75 ug/ml after 48 hrs by agar well diffusion method
[28] = tested on: Fusarium verticillioides; test: Antifungal activity against Fusarium moniliforme at 100 ug/ml after 48 hrs by agar well diffusion method
[29] = tested on: Fusarium oxysporum; test: Antifungal activity against Fusarium oxysporum at 25 ug/ml after 48 hrs by agar well diffusion method
[30] = tested on: Fusarium oxysporum; test: Antifungal activity against Fusarium oxysporum at 50 ug/ml after 48 hrs by agar well diffusion method
[31] = tested on: Fusarium oxysporum; test: Antifungal activity against Fusarium oxysporum at 75 ug/ml after 48 hrs by agar well diffusion method
[32] = tested on: Fusarium oxysporum; test: Antifungal activity against Fusarium oxysporum at 100 ug/ml after 48 hrs by agar well diffusion method; conditions: read-out: DIZ
[33] = tested on: Klebsiella pneumoniae; test: Antibacterial activity against Klebsiella pneumoniae incubated for overnight by microdilution method
[34] = tested on: Staphylococcus aureus; test: Antibacterial activity against Staphylococcus aureus incubated for overnight by microdilution method
[35] = tested on: Bacillus subtilis; test: Antibacterial activity against Bacillus subtilis incubated for overnight by microdilution method
[36] = tested on: Escherichia coli; test: Antibacterial activity against Escherichia coli incubated for overnight by microdilution method
[37] = tested on: Staphylococcus aureus; test: Antibacterial activity against methicillin resistant Staphylococcus aureus MRSA090 incubated for overnight by microdilution method
[38] = tested on: Fusarium verticillioides; test: Antifungal activity against Fusarium moniliforme after 48 to 72 hrs by microdilution method
[39] = tested on: Fusarium oxysporum; test: Antifungal activity against Fusarium oxysporum after 48 to 72 hrs by microdilution method

Structure (SMILES)	zone of inhibition at 25 µg/mL [1] [mm]	zone of inhibition at 50 µg/mL [2] [mm]	zone of inhibition at 75 µg/mL [3] [mm]	zone of inhibition at 100 µg/mL [4] [mm]	zone of inhibition at 25 µg/mL [5] [mm]	zone of inhibition at 50 µg/mL [6] [mm]	zone of inhibition at 75 µg/mL [7] [mm]	zone of inhibition at 100 µg/mL [8] [mm]	zone of inhibition at 25 µg/mL [9] [mm]	zone of inhibition at 50 µg/mL [10] [mm]	zone of inhibition at 75 µg/mL [11] [mm]	zone of inhibition at 25 µg/mL [17] [mm]	zone of inhibition at 50 µg/mL [18] [mm]	zone of inhibition at 75 µg/mL [19] [mm]	zone of inhibition at 100 µg/mL [20] [mm]	MIC [33] [µg/mL]	MIC [34] [µg/mL]	MIC [35] [µg/mL]	MIC [36] [µg/mL]	MIC [37] [µg/mL]	further results
COc1ccc(/C=N/Nc2nc3cccc(C)c3s2)c(OC)c1	10	15	20	28	13	19	25	29	13	18	24	15	18	22	27	22 (≈ 67.2 µM)	26 (≈ 79.4 µM)	24 (≈ 73.3 µM)	25 (≈ 76.4 µM)	22 (≈ 67.2 µM)	zone of inhibition at 100 µg/mL [12]: 23 mm; zone of inhibition at 25 µg/mL [13]: 4 mm; zone of inhibition at 50 µg/mL [14]: 9 mm; zone of inhibition at 75 µg/mL [15]: 12 mm; zone of inhibition at 100 µg/mL [16]: 15 mm; diameter of the inhibition zone (DIZ) [21]: inactive; diameter of the inhibition zone (DIZ) [22]: inactive; diameter of the inhibition zone (DIZ) [23]: inactive; zone of inhibition at 100 µg/mL [24]: 4 mm; diameter of the inhibition zone (DIZ) [25]: inactive; diameter of the inhibition zone (DIZ) [26]: inactive; diameter of the inhibition zone (DIZ) [27]: inactive; diameter of the inhibition zone (DIZ) [28]: inactive; zone of inhibition at 25 µg/mL ([29]; read-out: DIZ): 7 mm; zone of inhibition at 50 µg/mL ([30]; read-out: DIZ): 12 mm; zone of inhibition at 75 µg/mL ([31]; read-out: DIZ): 14 mm; zone of inhibition at 100 µg/mL [32]: 17 mm
CO[C@H]1/C=C/O[C@@]2(C)Oc3c(C)c(O)c4c(O)c(c(/C=N/N5CCN(C)CC5)c(O)c4c3C2=O)NC(=O)/C(C)=C\C=C\[C@H](C)[C@H](O)[C@@H](C)[C@@H](O)[C@@H](C)[C@H](OC(C)=O)[C@@H]1C [RIFAMPIN]												23	27	30	33	22 (≈ 26.7 µM)	21 (≈ 25.5 µM)	21 (≈ 25.5 µM)	22 (≈ 26.7 µM)	22 (≈ 26.7 µM)	
Cc1cccc2nc(N/N=C/c3ccc(O)cc3O)sc12	14	18	23	26	12	18	24	28	6	12	17	12	16	20	24	24 (≈ 80.2 µM)	24 (≈ 80.2 µM)	29 (≈ 96.9 µM)	33 (≈ 110 µM)	20 (≈ 66.8 µM)	zone of inhibition at 100 µg/mL [12]: 20 mm; zone of inhibition at 25 µg/mL [13]: 12 mm; zone of inhibition at 50 µg/mL [14]: 16 mm; zone of inhibition at 75 µg/mL [15]: 21 mm; zone of inhibition at 100 µg/mL [16]: 25 mm; zone of inhibition at 25 µg/mL ([21]; read-out: DIZ): 8 mm; zone of inhibition at 50 µg/mL ([22]; read-out: DIZ): 14 mm; zone of inhibition at 75 µg/mL ([23]; read-out: DIZ): 17 mm; zone of inhibition at 100 µg/mL [24]: 21 mm; diameter of the inhibition zone (DIZ) [25]: inactive; diameter of the inhibition zone (DIZ) [26]: inactive; zone of inhibition at 75 µg/mL ([27]; read-out: DIZ): 10 mm; zone of inhibition at 100 µg/mL ([28]; read-out: DIZ): 14 mm; diameter of the inhibition zone (DIZ) [29]: inactive; diameter of the inhibition zone (DIZ) [30]: inactive; diameter of the inhibition zone (DIZ) [31]: inactive; zone of inhibition at 100 µg/mL [32]: 8 mm; MIC [38]: 25 µg/mL (≈ 83.5 µM); MIC [39]: 27 µg/mL (≈ 90.2 µM)
